Article PMC8348901, “Novel N-Substituted 3-Aryl-4-(diethoxyphosphoryl)azetidin-2-ones as Antibiotic Enhancers and Antiviral Agents in Search for a Successful Treatment of Complex Infections” (International Journal of Molecular Sciences, 2021)
Like-named read-outs stand apart in the source and are kept apart here.

What was measured:
[1] = test system: Capan-1 (pancreatic adenocarcinoma); assay: Cytostatic activity (cell proliferation); format: cell-based; conditions: Homo sapiens, CAPAN-1
Experimental: (§1) The 50% cytostatic inhibitory concentration (IC50) causing a 50% decrease in cell proliferation was determined for all obtained compounds toward 9 cancerous cell lines, i.e.,: Capan-1 (pancreatic adenocarcinoma), Hap1 (chronic myeloid leukemia), HCT-116 (colorectal carcinoma), NCI-H460 (lung carcinoma), DND-41 (acute lymphoblastic leukemia), HL-60 (acute myeloid leukemia), K-562 (chronic myeloid leukemia), MM.1S (multiple myeloma), Z-138 non-Hodgkin lymphoma), as well as normal retina (non-cancerous) cells (hTERT RPE-1).
(§2) All assays were performed in 96-well microtiter plates. To each well was added (5–7.5) × 10^4 tumor cells and a given amount of the tested compound. The cells were allowed to proliferate at 37 °C in a humidified, CO2-controlled atmosphere. At the end of the incubation period, the cells were counted in a Coulter counter.

MRSA HEMSA 5 = assay: Oxacillin MIC reduction (adjuvant) microdilution assay; format: cell-based, Staphylococcus aureus; conditions: MIC(OXA)/MIC(OXA+Cpd), compound 0.5 mM, adjuvant activity if A ≥ 4
Experimental: (§3) Since the lack of direct antibacterial activity of the obtained azetidinones was observed, all isomers trans and cis were investigated on their “adjuvant” properties, i.e., an ability to enhance the effectiveness of antibiotics against S. aureus strains. Thus, the compounds were tested in combination with the known β-lactam antibiotic, oxacillin, in the microdilution assays. The ability of the tested azetidinones to reduce minimum inhibitory concentration (MIC) of oxacillin against both, the referenced and the resistant S. aureus strains, was assessed.
(§4) The in-vitro antibacterial property and the capacity of tested compounds to increase the efficacy of antibiotics were evaluated in two Staphylococcus aureus strains, i.e., the reference clonal complex 5 (CC5) methicillin-susceptible (MSSA) strain ATCC 25923, and the methicillin-resistant (MRSA) extensively drug-resistant (XDR) clinical isolate HEMSA-5 [46].
(§5) In order to assess the increase of antibiotic efficacy, the assays were conducted by determining if/to what extent the investigated compounds reduce MICs of oxacillin by means of a serial dilution broth microplate method, in accordance with the CLSI requirements. The concentrations of compounds used in the MICs reduction assay were no greater than 1/4 of their respective MICs to ensure that cell viability was not affected by the intrinsic antibacterial activity of the molecules. Serial two-fold dilutions of oxacillin (Sigma-Aldrich; St. Louis, MI, USA, cat. no. 28221), were prepared in […] of the Mueller–Hinton broth (Merck; Darmstadt, Germany, cat. no. 1102930500). Suitable concentrations of the compounds (total volume […]) were then added. Bacterial suspensions were diluted to OD ¼ 0.5. The resulting suspensions were then diluted 1:100 and added in the volume of […] into the oxacillin serial dilutions with the compounds. The results were read after 20-h incubation at 37 °C.
(§6) The ability of compounds to improve antibiotic efficacy was expressed as the activity gain [A] parameter calculated according to the formula given in Figure 10.
(§7) Figure 10 Activity gain. MICAnt corresponds to the MIC of oxacillin in the absence of a compound tested and MICAnt + Comp refers to the MIC of oxacillin paired with a compound tested.

S. aureus ATCC 25923 = assay: as above; format: cell-based, Staphylococcus aureus; conditions: MIC(OXA)/MIC(OXA+Cpd), compound 0.5 mM, adjuvant activity if A ≥ 4
Experimental: as §3, §4, §5, §6, §7

[2] = test system: hTERT RPE-1 normal retina (non-cancerous) cells; assay: Cytostatic activity (cell proliferation); format: cell-based
Experimental: as §1, with “RPE-1). Docetaxel, etoposide and stauroporine were used as the reference compounds.” for “RPE-1).”
as §2, with “counter. The IC50 (50% inhibitory concentration) was defined as the concentration of the compound that inhibited cell proliferation by 50%.” for “counter.”

[3] = test system: Hap1 (chronic myeloid leukemia); assay: Cytostatic activity (cell proliferation); format: cell-based
Experimental: as §1, with “RPE-1). Docetaxel, etoposide and stauroporine were used as the reference compounds.” for “RPE-1).”
as §2, with “counter. The IC50 (50% inhibitory concentration) was defined as the concentration of the compound that inhibited cell proliferation by 50%.” for “counter.”

[4] = test system: DND-41 (acute lymphoblastic leukemia); assay: Cytostatic activity (cell proliferation); format: cell-based
Experimental: as §1, with “RPE-1). Docetaxel, etoposide and stauroporine were used as the reference compounds.” for “RPE-1).”
as §2, with “counter. The IC50 (50% inhibitory concentration) was defined as the concentration of the compound that inhibited cell proliferation by 50%.” for “counter.”

[5] = test system: HCT-116 (colorectal carcinoma); assay: Cytostatic activity (cell proliferation); format: cell-based
Experimental: as §1, with “RPE-1). Docetaxel, etoposide and stauroporine were used as the reference compounds.” for “RPE-1).”
as §2, with “counter. The IC50 (50% inhibitory concentration) was defined as the concentration of the compound that inhibited cell proliferation by 50%.” for “counter.”

[6] = test system: NCI-H460 (lung carcinoma); assay: Cytostatic activity (cell proliferation); format: cell-based
Experimental: as §1, with “RPE-1). Docetaxel, etoposide and stauroporine were used as the reference compounds.” for “RPE-1).”
as §2, with “counter. The IC50 (50% inhibitory concentration) was defined as the concentration of the compound that inhibited cell proliferation by 50%.” for “counter.”

Compound	IC50 [1]	Activity Gain [A] (MRSA HEMSA 5)	Activity Gain [A] (S. aureus ATCC 25923)	IC50 ([2]; hTERT-RPE1)	IC50 ([3]; Homo sapiens, HAP1)	IC50 ([4]; DND41)	IC50 ([5]; Homo sapiens, HCT-116)	IC50 ([6]; Homo sapiens, NCI-H460)	IC50 [2]	IC50 [3]	IC50 [4]	IC50 [5]	IC50 [6]
CCOP(=O)(OCC)[C@@H]1[C@H](c2ccc(F)cc2F)C(=O)N1C (relative stereo) [cis-10e, cis-N-methyl-3-(2,4-difluorophenyl)-4-(diethoxyphosphoryl)azetidin-2-one]	56.8 µM	1	1	> 100 µM	> 100 µM	> 100 µM	> 100 µM	92.6 µM	–	–	–	–	–
CCOP(=O)(OCC)[C@@H]1[C@H](c2ccccc2)C(=O)N1Cc1ccccc1 (relative stereo) [cis-11a, cis-N-benzyl-3-phenyl-4-(diethoxyphosphoryl)azetidin-2-one]	95.2 µM	1–2	0.5	> 100 µM	> 100 µM	> 100 µM	87.9 µM	78.8 µM	–	–	–	–	–
CN[C@@H]1C[C@H]2O[C@@](C)([C@@H]1OC)n1c3ccccc3c3c4c(c5c6ccccc6n2c5c31)C(=O)NC4 [Stauroporine, reference compound]	–	–	–	–	–	–	–	–	0.25 µM	3.55 µM	21.5 µM	0.09 µM	11.5 µM
CCOP(=O)(OCC)[C@H]1[C@H](c2ccccc2F)C(=O)N1Cc1ccccc1 (relative stereo) [trans-11b, trans-N-benzyl-3-(2-fluorophenyl)-4-(diethoxyphosphoryl)azetidin-2-one]	51.9 µM	1–2	<0.5	> 100 µM	> 100 µM	> 100 µM	> 100 µM	56.7 µM	–	–	–	–	–
CCOP(=O)(OCC)[C@H]1[C@H](c2ccc(F)c(C)c2)C(=O)N1C (relative stereo) [trans-10f, trans-N-methyl-3-(4-fluoro-3-methylphenyl)-4-(diethoxyphosphoryl)azetidin-2-one]	47.7 µM	1	0.5	90.2 µM	41.8 µM	> 100 µM	> 100 µM	59.7 µM	–	–	–	–	–
COc1cc([C@@H]2c3cc4c(cc3[C@@H](O[C@@H]3O[C@@H]5CO[C@@H](C)O[C@H]5[C@H](O)[C@H]3O)[C@H]3COC(=O)[C@H]23)OCO4)cc(OC)c1O [Etoposide, reference compound]	0.15 µM	–	–	0.23 µM	0.04 µM	0.06 µM	–	1.35 µM	–	–	–	–	–
CC(=O)O[C@@]12CO[C@@H]1C[C@H](O)[C@@]1(C)C(=O)[C@H](O)C3=C(C)[C@@H](OC(=O)[C@H](O)[C@@H](NC(=O)OC(C)(C)C)c4ccccc4)C[C@@](O)([C@@H](OC(=O)c4ccccc4)[C@H]21)C3(C)C [Docetaxel, reference compound]	0.95 µM	–	–	25 µM	1.19 µM	1.63 µM	0.25 µM	0.89 µM	–	–	–	–	–
CCOP(=O)(OCC)[C@@H]1[C@H](c2ccc(F)cc2)C(=O)N1C (relative stereo) [cis-10d, cis-N-methyl-3-(4-fluorophenyl)-4-(diethoxyphosphoryl)azetidin-2-one]	> 100 µM	1	0.5	> 100 µM	70.3 µM	> 100 µM	86.5 µM	71 µM	–	–	–	–	–
